Tested on: VSV
Assay type: cell-based, Vesicular Stomatitis Virus

## Ammonium Iron(III) Citrate
  VSV binding: no affect
